The text below walks through data of PubChem BioAssay (NCI).

Structures are written as SMILES.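 Exposure lasted 48 hours, with cells grown in 96-well plates and compounds tested at five concentrations. TGI is the concentration that stops growth completely.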

Among the test systems are SK-MEL-5 melanoma; UO-31 renal; NCI-H226 lung; OVCAR-5 ovarian; HT29 colon; UACC-257 melanoma; MDA-MB-231 breast; BT-549 breast; DU-145 prostate; SNB-19 CNS.
What all share (assay): inhibition of tumour cell growth, NCI panel, 48 h

For the compound `Cc1cc(S(=O)(=O)Nc2nc(N)n(-c3ccccn3)n2)c(S)cc1Cl`, the TGI in the test on SK-MEL-5 melanoma, in the test with UO-31 renal, with NCI-H226 lung, with OVCAR-5 ovarian, with HT29 colon and in the test on UACC-257 melanoma was more than 100 µM throughout. In addition, the TGI in the test with MDA-MB-231 breast, in the test on BT-549 breast, in the test with DU-145 prostate and in the test on SNB-19 CNS was more than 100 µM each time.

Regarding `C/C(Cl)=N/OC(=O)Nc1ccc(S(N)(=O)=O)c(C)c1`, the TGI was 26.1 µM in the test with SK-MEL-5 melanoma; 28.1 µM in the test with UO-31 renal; 47.6 µM in the test with NCI-H226 lung; 34.4 µM in the test with OVCAR-5 ovarian; more than 77.7 µM in the test on HT29 colon; 27.9 µM in the test with UACC-257 melanoma. In addition, the TGI came out at 22 µM in the test with MDA-MB-231 breast, 25.1 µM with BT-549 breast, 30.5 µM with DU-145 prostate and 32.3 µM in the test on SNB-19 CNS.

As for `O=c1[nH]nc(-c2ccccc2)n1-c1ccncc1`, the TGI with SK-MEL-5 melanoma, with UO-31 renal, in the test with NCI-H226 lung, with OVCAR-5 ovarian, in the test on HT29 colon and in the test with UACC-257 melanoma was more than 100 µM in each case. The TGI in the test on MDA-MB-231 breast, with BT-549 breast, with DU-145 prostate and in the test on SNB-19 CNS was more than 100 µM in each case.

`COC(=O)CC(c1cn(S(=O)(=O)c2ccc(C)cc2)c2ccccc12)C1C[C@@H](C(=O)OC)N(C(=O)OC(C)(C)C)C1=O` (stereo not given in full): the TGI with SK-MEL-5 melanoma, in the test on UO-31 renal, in the test on NCI-H226 lung, with OVCAR-5 ovarian, in the test on HT29 colon and in the test with UACC-257 melanoma was more than 100 µM in each case. For the same compound, the TGI in the test on MDA-MB-231 breast, in the test on BT-549 breast, in the test on DU-145 prostate and in the test on SNB-19 CNS was more than 100 µM throughout.

Consider `O=C(O)CCC(=O)Nc1ccc2ccccc2c1`, for which the TGI in the test with SK-MEL-5 melanoma, in the test with UO-31 renal, with NCI-H226 lung, with OVCAR-5 ovarian, with HT29 colon and with UACC-257 melanoma was more than 100 µM throughout. Also, the TGI in the test with MDA-MB-231 breast, in the test with BT-549 breast, with DU-145 prostate and in the test on SNB-19 CNS was more than 100 µM throughout.

With `CC(CCC(=O)O)(c1ccc(O)cc1)c1ccc(O)cc1`, the TGI in the test with SK-MEL-5 melanoma, in the test on UO-31 renal, with NCI-H226 lung, in the test on OVCAR-5 ovarian, in the test with HT29 colon and in the test with UACC-257 melanoma was more than 100 µM each time. The TGI with MDA-MB-231 breast, with BT-549 breast, in the test with DU-145 prostate and with SNB-19 CNS was more than 100 µM each time.

As to `Cc1cc2cc3c(cc2c(-c2ccc([N+](=O)[O-])cc2)n1)OCO3`, the TGI in the test with SK-MEL-5 melanoma was more than 100 µM; with UO-31 renal it was more than 100 µM; with NCI-H226 lung, 89.8 µM; in the test with OVCAR-5 ovarian, more than 100 µM; in the test with HT29 colon, more than 100 µM; in the test with UACC-257 melanoma, more than 100 µM. Also, the TGI is 84.4 µM in the test with MDA-MB-231 breast, 73.7 µM in the test with BT-549 breast, more than 100 µM in the test with DU-145 prostate and more than 100 µM in the test on SNB-19 CNS.

Turning to `CCCCCCCCCCCCN(CC(O)C(O)C(OC1OC(CO)C(O)C(O)C1O)C(O)CO)C(=O)CCCCCCCCCCC` (stereo not given), the TGI in the test with SK-MEL-5 melanoma was 31.3 µM; in the test on UO-31 renal it was 45.8 µM; with NCI-H226 lung, 44.6 µM; in the test on OVCAR-5 ovarian, more than 100 µM; in the test with HT29 colon it was 34.4 µM; in the test with UACC-257 melanoma it was 36.6 µM. In addition, the TGI amounted to 42.7 µM in the test with MDA-MB-231 breast, 40.4 µM in the test on BT-549 breast, 35.8 µM with DU-145 prostate and 35.4 µM in the test with SNB-19 CNS.

For the compound `CCOC(=O)c1c(NC(=O)c2cccs2)sc2c1CCC2`, the TGI in the test with SK-MEL-5 melanoma, in the test on UO-31 renal, in the test with NCI-H226 lung, with OVCAR-5 ovarian, with HT29 colon and in the test with UACC-257 melanoma was more than 100 µM throughout. Moreover, the TGI in the test on MDA-MB-231 breast, with BT-549 breast, with DU-145 prostate and with SNB-19 CNS was more than 100 µM in each case.

Take `c1nc(N2CC2)c2cnn(C3CCCCO3)c2n1` (stereo not given): the TGI with SK-MEL-5 melanoma, in the test with UO-31 renal, in the test on NCI-H226 lung, in the test with OVCAR-5 ovarian, in the test with HT29 colon and in the test with UACC-257 melanoma was more than 100 µM each time. The TGI with MDA-MB-231 breast, with BT-549 breast, in the test with DU-145 prostate and in the test on SNB-19 CNS was more than 100 µM each time.

Take `COc1cc2ncnc(Nc3cccc(Cl)c3)c2cc1OC`: the TGI in the test with SK-MEL-5 melanoma was found to be 17.4 µM; with UO-31 renal, 44 µM; in the test on NCI-H226 lung, 14.8 µM; in the test with OVCAR-5 ovarian, 47.2 µM; in the test with HT29 colon, 34.9 µM; with UACC-257 melanoma, 37.4 µM. Moreover, the TGI in the test on MDA-MB-231 breast turned out to be 54 µM; with BT-549 breast, 13.7 µM; with DU-145 prostate, 38.3 µM; with SNB-19 CNS, 82.1 µM.

Regarding `CCCC/C=C/C/C=C/CCCCCCCCC(=O)OCC1CCCN2CCCCC12` (stereo not given), the TGI in the test with SK-MEL-5 melanoma, in the test with UO-31 renal, in the test with NCI-H226 lung, in the test with OVCAR-5 ovarian, in the test on HT29 colon and with UACC-257 melanoma was more than 100 µM throughout. The TGI in the test on MDA-MB-231 breast, in the test with BT-549 breast, with DU-145 prostate and with SNB-19 CNS was more than 100 µM throughout.
